“And” between values parts separate entries of the source, which are not always exact repeats. Identical values can stand only once. “Also recorded” adds a separate entry of the source.

The assay deals with TLT tumor. The arrangement: species or system mice. The note with it: mouse, in vivo.

With `O=P1(N(CCCl)CCCl)NCCCO1` (centres unmarked) [cyclophosphamide], the “regrowth delay to double tumour diameter” value is 7.73 ± 0.38 days and 7.7 ± 0.4 days. The “effect of cyclophosphamide alone on regrowth delay” value (50 mg/kg) is listed as “No difference in regrowth delay; also recorded: just below the efficacy threshold”.

(Values after patent US20090232849A1 (priority 2005, published 2009).)
